{
  "source": "patent US8361971B2",
  "about": "“Tablet formulation of ezatiostat” (Telik, Inc., priority 2010, dated 2013)",
  "type_in_all_cases": "physicochemical",
  "key": {"[1]": {"assay": "Description (appearance) of tablets on storage", "protocol": "(§1) Tablets of ansolvate form D, were packaged with and without desiccant (Sorb-It Cannister, 1 gram). Fifty tablets were packaged in a round, white 1500 mL bottle with a screw cap over an induction seal. Impurities were assayed by HPLC. When stored at 25° C./60% RH with desiccant for 3 months, no increase in total impurities was observed. When stored at 40° C./75% RH with desiccant for 3 months, total impurities increased only by 0.3%. When stored at 40° C./75% RH without desiccant for 3 months, total impurities still increased by 1.1%. As tabulated below, the presence of desiccant appears to further increase the stability of the ansolvate form D. Even though the dissolution rate of tablets containing polymorph D from one batch was below specification (<70%) at an initial test as well as after 3 months at 25° C./60% RH with desiccant, the subsequent batches met the required specification."}, "[2]": {"assay": "Assay and impurities by HPLC of tablets on storage", "design": "key to Individual Impurities RRT = 0.74 / Individual Impurities RRT = 0.83 / TLK 236 RRT = 0.88 / Individual Impurities RRT = 0.94 / Individual Impurities RRT = 0.96 / Total impurities / Individual Impurities RRT = 0.80 / Individual Impurities RRT = 0.81 / Individual Impurities RRT = 0.86 / Individual Impurities RRT = 0.99: impurity content in %", "from_the_text": "As used herein, “impurity” refers to one or more of: TLK 236, another polymorphic form of ezatiostat hydrochloride including without limitation form A, B, C, E, or F, and any other compound other than ezatiostat hydrochloride ansolvate, which may be identified by HPLC. TLK 236 is a monoester derived from the partial hydrolysis of ezatiostat where the phenyl glycine moiety remains esterified.\n(§2) As described above, form E converts to form B simply during tableting.\nas §1"}, "[3]": {"assay": "X-ray diffraction, polymorphic form in tablets", "settings": "hydrochloride; for X-ray Diffraction: tablets", "protocol": "X-ray powder diffraction (XRPD) analyses were performed on a Shimadzu XRD-6000 X-ray powder diffractometer using Cu Kα radiation from a long fine focus X-ray tube, operated at 40 kV, 40 mA. The divergence and scattering slits were set at 1° and the receiving slit was set at 0.15 mm. Diffracted radiation was detected by a NaI scintillation detector. A θ-2θ continuous scan at 3°/min (0.4 sec/0.02° step) from 2.5°-40° 2θ was used. A silicon standard was analyzed to check alignment of the instrument. Data were collected and analyzed using XRD-6000 v.4.1 software.\nStress experiments: solids were stressed under different temperature and/or relative humidity (RH) environments for a measured time period. Specific RH values were achieved by placing the sample inside sealed chambers containing saturated salt solutions. Samples were analyzed by XRPD immediately after removal from the stress environment.\nas §2, §1"}, "[4]": {"assay": "Water content of tablets on storage", "settings": "hydrochloride", "protocol": "Karl Fischer analyses for water determination were performed on a Mettler Toledo DL39 Karl Fischer titrator. About 10-15 mg of sample was placed in the KF titration vessel containing approximately 100 mL of Hydranal®—Coulomat AD reagent and mixed for 60 seconds to ensure dissolution. The dissolved sample was then titrated by means of a generator electrode which produces iodine by electrochemical oxidation. […]\nas §1"}, "[5]": {"assay": "Assay and impurities by HPLC of tablets on storage", "design": "key to Individual Impurities RRT = 0.74 / TLK 236 RRT = 0.88 / Individual Impurities RRT = 0.96 / Total impurities: impurity content in %", "settings": "6 Month at 40° C./75% RH without desiccant, hydrochloride"}, "[6]": {"assay": "Tablet dissolution (Q at 45 min)", "settings": "tablets, hydrochloride", "from_the_text": "Without being bound by theory, a higher dissolution rate relates to a higher amount of the active agent in the gastric fluid, which in turn relates to higher bioavailability of the active agent. A high bioavailability is desired, for example and without limitation, for reducing inter patient variability of drug exposure for a orally administered agent such as ezatiostat hydrochloride. […] The aqueous solubility can be measured in a variety of aqueous solvents, including without limitation, water, 0.9% aqueous NaCl, 5% dextrose for injection, phosphate buffered saline, and generally aqueous solutions having a pH of less than about 5. Such solvents may include suitable buffers and other salts. […]\nas §1"}, "[7]": {"settings": "3 Month at 40° C./75% RH without desiccant"}, "[8]": {"settings": "6 Month at 40° C./75% RH without desiccant, hydrochloride"}, "[9]": {"settings": "3 Month at 40° C./75% RH without desiccant, hydrochloride"}, "[10]": {"settings": "6 Month at 40° C./75% RH without desiccant"}},
  "data": [
    {"compound": "CCOC(=O)[C@@H](N)CCC(=O)N[C@@H](CSCc1ccccc1)C(=O)N[C@@H](C(=O)OCC)c1ccccc1.Cl", "note": "[Polymorph Form E, ezatiostat hydrochloride]", "values": [
      {"measurement": "Description", "setting": "[1]; [7]", "result": "Off-white"},
      {"measurement": "Description", "setting": "[1]; [8]", "result": "Brown round"},
      {"measurement": "Description", "setting": "[1]; Initial", "result": "White round"},
      {"measurement": "Individual Impurities RRT = 0.59/0.62", "setting": "[2]; [7]", "result": 0.07},
      {"measurement": "Individual Impurities RRT = 0.86", "setting": "[2]; [7]", "result": 0.06},
      {"measurement": "Assay (HPLC)", "setting": "[2]; [9]", "result": 90.3, "unit": "% Label Claim"},
      {"measurement": "Individual Impurities RRT = 0.74", "setting": "[2]; [9]", "result": 0.42},
      {"measurement": "Individual Impurities RRT = 0.80", "setting": "[2]; [9]", "result": 0.16},
      {"measurement": "Individual Impurities RRT = 0.81", "setting": "[2]; [9]", "result": 0.14},
      {"measurement": "Individual Impurities RRT = 0.83", "setting": "[2]; [9]", "result": 0.31},
      {"measurement": "Individual Impurities RRT = 0.94", "setting": "[2]; [9]", "result": 0.08},
      {"measurement": "Individual Impurities RRT = 0.96", "setting": "[2]; [9]", "result": 0.19},
      {"measurement": "Individual Impurities RRT = 0.99", "setting": "[2]; [9]", "result": 0.20},
      {"measurement": "TLK 236 RRT = 0.88", "setting": "[2]; [9]", "result": 3.45},
      {"measurement": "Total impurities", "setting": "[2]; [9]", "result": 5.1},
      {"measurement": "Individual Impurities RRT = 0.80", "setting": "[2]; [8]", "result": 0.41},
      {"measurement": "Individual Impurities RRT = 0.81", "setting": "[2]; [8]", "result": 0.17},
      {"measurement": "Individual Impurities RRT = 0.83", "setting": "[2]; [8]", "result": 0.16},
      {"measurement": "Individual Impurities RRT = 0.99", "setting": "[2]; Initial", "result": 0.12},
      {"measurement": "Assay (HPLC)", "setting": "[2]; Initial, hydrochloride", "result": 93.7, "unit": "% Label Claim"},
      {"measurement": "Individual Impurities RRT = 0.74", "setting": "[2]; Initial, hydrochloride", "result": 0.38},
      {"measurement": "Individual Impurities RRT = 0.83", "setting": "[2]; Initial, hydrochloride", "result": 0.34},
      {"measurement": "Individual Impurities RRT = 0.96", "setting": "[2]; Initial, hydrochloride", "result": 0.20},
      {"measurement": "TLK 236 RRT = 0.88", "setting": "[2]; Initial, hydrochloride", "result": 0.42},
      {"measurement": "Total impurities", "setting": "[2]; Initial, hydrochloride", "result": 1.5},
      {"measurement": "polymorphic conversion on storage", "setting": "[3]; 40° C. and 75% RH without a desiccant, form D 6 months, form E 3 months, listed as solvate form E", "result": "transforms into a mixture of form B and the ansolvate form D within 3 months"},
      {"measurement": "polymorphic conversion during tablet manufacture", "setting": "[3]; during tablet manufacture, listed as solvate form E", "result": "transforms almost entirely to form B crystals merely during tablet manufacture"},
      {"measurement": "X-ray Diffraction", "setting": "[3]; [7]", "result": "Polymorph B"},
      {"measurement": "X-ray Diffraction", "setting": "[3]; [10]", "result": "Polymorph B"},
      {"measurement": "X-ray Diffraction", "setting": "[3]; Initial", "result": "Polymorph B"},
      {"measurement": "Water Content", "setting": "[4]; [7]", "result": 2.3, "unit": "%"},
      {"measurement": "Water Content", "setting": "[4]; [10]", "result": 2.3, "unit": "%"},
      {"measurement": "Water Content", "setting": "[4]; Initial", "result": 3.5, "unit": "%"},
      {"measurement": "Assay (HPLC)", "setting": "[5]", "result": 84.6, "unit": "% Label Claim"},
      {"measurement": "Individual Impurities RRT = 0.59/0.62", "setting": "[5]", "result": 0.15},
      {"measurement": "Individual Impurities RRT = 0.74", "setting": "[5]", "result": 0.51},
      {"measurement": "Individual Impurities RRT = 0.96", "setting": "[5]", "result": 0.24},
      {"measurement": "TLK 236 RRT = 0.88", "setting": "[5]", "result": 4.66},
      {"measurement": "Total impurities", "setting": "[5]", "result": 6.3},
      {"measurement": "Dissolution, Mean at 45 min", "setting": "[6]; [7]", "result": "Mean = 33 % of label claim"},
      {"measurement": "Dissolution, Mean at 45 min", "setting": "[6]; [10]", "result": "Mean = 19 % of label claim"},
      {"measurement": "Dissolution, Mean at 45 min", "setting": "[6]; Initial", "result": "Mean = 46 % of label claim"}
    ]}
  ]
}
